The text below walks through data of publication PMC6792352, “Limited Chemical Structural Diversity Found to Modulate Thyroid Hormone Receptor in the Tox21 Chemical Library” (Environmental Health Perspectives, 2019).

Structures can show the parent of a compound that is named as a salt.

This series is described as follows: in vitro. The settings on record: rat, gh3-tre-luc cells.

In general, CC50 refers to the concentration that lowers cell viability or growth by half. Take `CC1=C(C)C(=O)C(CCCCC#CCCCC#CCO)=C(C)C1=O` [Docebenone]: the CC50 at 24 h (AC50 (uM) modified / 1000) is 23.5 µM. `O=C(O)c1ccccc1Nc1cccc(C(F)(F)F)c1` [Flufenamic acid] came in with a CC50 at 24 h (AC50 (uM) modified / 1000) of over 50 µM. With `CC1(S(=O)(=O)O)CC(=O)c2ccccc2C1=O` (stereo not drawn) [Menadione sodium bisulfite], the CC50 at 24 h (AC50 (uM) modified / 1000) was 12.2 µM. As for `Cc1cc2cc3c(C)cc(=O)oc3c(C)c2o1` [Trioxsalen], where the note is “AC50 (uM) modified / 1000”, the cytotoxic concentration (CC50) at 24 h is over 20 µM. `O=S(=O)(O)OC[C@H]1O[C@@](COS(=O)(=O)O)(O[C@H]2O[C@H](COS(=O)(=O)O)[C@@H](OS(=O)(=O)O)[C@H](OS(=O)(=O)O)[C@H]2OS(=O)(=O)O)[C@@H](OS(=O)(=O)O)[C@@H]1OS(=O)(=O)O` [Sucrose octasulfate, sodium salt]: the CC50 at 24 h (AC50 (uM) modified / 1000) is over 50 µM.

Regarding `CC(=O)OCC1=C(C(=O)O)N2C(=O)[C@@H](NC(=O)Cc3cccs3)[C@H]2SC1` [Cephalothin], the 50% cytotoxic concentration (CC50) at 24 h (AC50 (uM) modified / 1000) was over 50 µM.

Molecule `CCCNC(C)C(=O)Nc1c(C)csc1C(=O)OC` (stereo not drawn) [Articaine hydrochloride] gave a 50% cytotoxic concentration (CC50) at 24 h (AC50 (uM) modified / 1000) of over 20 µM. On the same count and under the same terms, to `O=CCCc1ccccc1` [3-Phenylpropanal] belongs over 90 µM. Same read-out and setting: then `CCNc1nc(Cl)nc(NC(C)(C)C)n1` [Terbutylazine], with over 90 µM. Regarding `NCCCC[C@H](NC(=O)[C@@H]1CCCN1C(=O)[C@@H]1CSSC[C@H](N)C(=O)N[C@@H](Cc2ccc(O)cc2)C(=O)N[C@@H](Cc2ccccc2)C(=O)N[C@@H](CCC(N)=O)C(=O)N[C@@H](CC(N)=O)C(=O)N1)C(=O)NCC(N)=O` [Lypressin], the CC50 at 24 h (AC50 (uM) modified / 1000) is over 50 µM. Still for that read-out and setting: to `CC(Cc1ccc(C(C)(C)C)cc1)CN1C[C@@H](C)O[C@@H](C)C1` (stereo partly drawn) [(2R,6S)-Fenpropimorph] belongs over 90 µM; to `CC(CN)CCCN` (stereo not drawn), over 90 µM; to `CCCCC[C@@H](O)[C@H]1C(=O)O[C@H](C)[C@@H](O)/C=C/C=C/C=C/C=C/C=C(\C)[C@@H](O)[C@H](O)[C@H](O)C[C@H](O)C[C@H](O)C[C@H](O)C[C@H](O)C[C@@H]1O` [Pentamycin], over 50 µM.

`CC(O)COCC(C)O` (stereo not drawn) [1,1'-Oxybis-2-propanol] showed a CC50 at 24 h (AC50 (uM) modified / 1000) of over 90 µM. For `CCCCC(CC)COC(=O)CCCCC(=O)OCC(CC)CCCC` (stereo not drawn) [Bis(2-ethylhexyl)hexanedioate], where the note is “AC50 (uM) modified / 1000”, the CC50 at 24 h is over 90 µM. For the setting “AC50 (uM) modified / 1000”, `CC1=NN(c2ccc(C(=O)O)cc2)C(=O)C1` [4-(3-Methyl-5-oxo-4,5-dihydro-1H-pyrazol-1-yl)benzoic acid] registered a CC50 at 24 h of over 90 µM. As to `O=c1cccccc1O` [Tropolone], half-maximal cytotoxicity (AC50 (uM) modified / 1000) (CC50 at 24 h) was put at 22.1 µM.

In the case of `COC(=O)C(Br)CBr` (stereo not drawn) [Methyl 2,3-dibromopropionate], the CC50 at 24 h (AC50 (uM) modified / 1000) was over 90 µM. Still for that read-out and setting: then `COc1ccc2nc(N)sc2c1` [2-Amino-6-methoxybenzothiazole], with over 90 µM.

For the setting “AC50 (uM) modified / 1000”, `O=C1CC[C@@]2(O)[C@H]3Cc4ccc(O)c5c4[C@@]2(CCN3CC2CC2)[C@H]1O5` [Naltrexone] gave a 50% cytotoxic concentration (CC50) at 24 h of over 50 µM. Consider `CC(C)(C)c1ccc(C=O)cc1` [4-tert-Butylbenzaldehyde], for which, for the setting “AC50 (uM) modified / 1000”, the 50% cytotoxic concentration (CC50) at 24 h is over 90 µM. As for `CCCCCCCCCC(=O)O[C@H]1CC[C@H]2[C@@H]3CCC4=CC(=O)CC[C@@H]4[C@H]3CC[C@]12C` [Nandrolone decanoate], the cytotoxic concentration (CC50) at 24 h (AC50 (uM) modified / 1000) is over 50 µM.

For the molecule `CC(c1ccc(O)cc1)(c1ccc(O)cc1)c1ccc(O)cc1` [4,4',4"-Ethane-1,1,1-triyltriphenol], the CC50 at 24 h (AC50 (uM) modified / 1000) was determined as 55.5 µM. That is a double-digit micromolar value. In the case of `Cc1ccc2c(C)cccc2c1` [1,6-Dimethylnaphthalene], under “AC50 (uM) modified / 1000”, the CC50 at 24 h is over 90 µM. The same measure, in the same setting: then `CCC(CC)CO` [2-Ethyl-1-butanol], with over 90 µM; and `CCCCC(=O)O` [Pentanoic acid], with over 90 µM. As for `NC/C=C/C(=O)O` [(E)-4-amino-2-butenoic acid], the CC50 at 24 h (AC50 (uM) modified / 1000) was over 50 µM.

For `CC(=O)c1ccc2ccc3ccccc3c2c1` [3-Acetylphenanthrene], where the note is “AC50 (uM) modified / 1000”, the CC50 at 24 h is over 90 µM.

For `c1csc(SSc2cccs2)c1` [2-Thienyl disulfide], the 50% cytotoxic concentration (CC50) at 24 h (AC50 (uM) modified / 1000) was over 90 µM. For `CCCCCCCCCC[N+](C)(C)CCCCCCCCCC` [Didecyldimethylammonium chloride], the midpoint of cytotoxicity (AC50 (uM) modified / 1000), the CC50 at 24 h, lay at 10.7 µM. `C[C@]12CCC(=O)C=C1CC[C@@H]1[C@@H]2CC[C@@]2(C)[C@H]1CC[C@]2(O)C(=O)CO` [Cortodoxone] registered a CC50 at 24 h (AC50 (uM) modified / 1000) of over 50 µM. On the same count and under the same terms, then `O=c1ccc2ccccc2o1` [Coumarin], with over 90 µM.

Consider `CC(C)(C)OC(=O)c1ncn2c1[C@@H]1CCCN1C(=O)c1c(Br)cccc1-2` [Bretazenil], for which, where the note is “AC50 (uM) modified / 1000, Tox21_110001=Tox21_111947, viability, 1 nM T3 present, 24 h”, the CC50 at 24 h was over 50 µM.

Molecule `O=C(O)CN(CCOCCOCCN(CC(=O)O)CC(=O)O)CC(=O)O` [Egtazic Acid] returned a CC50 at 24 h (AC50 (uM) modified / 1000) of over 50 µM. Same read-out and setting: to `O=C(O)[C@@H]1CCCN1` [Proline] belongs over 50 µM. In the case of `COc1cc2c(cc1OC)-c1cc3ccc(OC)c(OC)c3c[n+]1CC2` [Palmatine chloride hydrate], the CC50 at 24 h (AC50 (uM) modified / 1000) was over 90 µM. In turn, `CC12CC3CC(C)(C1)CC(N)(C3)C2` [Memantine] yielded a cytotoxic concentration (CC50) at 24 h (AC50 (uM) modified / 1000) of 38.1 µM. `CCn1cc(C(=O)O)c(=O)c2ccc(C)nc21` [Nalidixic acid] displayed a half-maximal cytotoxic concentration (CC50) at 24 h (AC50 (uM) modified / 1000) of over 90 µM.

With `O=C(O)Cc1ccc(CCNS(=O)(=O)c2ccc(Cl)cc2)cc1` [Daltroban], the half-maximal cytotoxic concentration (CC50) at 24 h (AC50 (uM) modified / 1000) is over 50 µM.

Under “AC50 (uM) modified / 1000”, `CC(=O)Nc1ccc(OC(=O)c2ccccc2O)cc1` [Acetaminosalol] returned a CC50 at 24 h of over 50 µM.

Regarding `C=C(C)C(=O)OCCCCCCCCCCOC(=O)C(=C)C` [1,10-Decanediol dimethacrylate], the cytotoxic concentration (CC50) at 24 h (AC50 (uM) modified / 1000) is over 90 µM. For the setting “AC50 (uM) modified / 1000”, `CCCC[N+]1(C)CCCCC1` [1-Butyl-1-methylpiperidinium tetrafluoroborate] came in with a CC50 at 24 h of over 90 µM. For `Cl[C@H]1[C@H](Cl)[C@@H](Cl)[C@H](Cl)[C@@H](Cl)[C@@H]1Cl` [beta-Hexachlorocyclohexane], the CC50 at 24 h (AC50 (uM) modified / 1000) was over 90 µM. In turn, `O=[N+]([O-])c1ccccc1-c1ccccc1` [2-Nitro-1,1'-biphenyl] returned a CC50 at 24 h (AC50 (uM) modified / 1000) of over 90 µM. Same read-out and setting: then `CC(C)C[C@@H](N)C(=O)O` [D-Leucine], with over 50 µM.

The molecule `CC(C)CCC(=O)CCC(C)C` [2,8-Dimethylnonan-5-one] yielded a half-maximal cytotoxic concentration (CC50) at 24 h (AC50 (uM) modified / 1000) of over 90 µM. `C=CCCCCCCCC` [1-Decene] showed a half-maximal cytotoxic concentration (CC50) at 24 h (AC50 (uM) modified / 1000) of over 90 µM. Same read-out and setting: to `Clc1ccc(Cl)c(Cl)c1Cl` [1,2,3,4-Tetrachlorobenzene] belongs over 90 µM.

Regarding `CCOP(=S)(OCC)SCSP(=S)(OCC)OCC` [Ethion], for the setting “AC50 (uM) modified / 1000, Tox21_110001=Tox21_300175, viability, 1 nM T3 present, 24 h”, the CC50 at 24 h is over 90 µM.

As for `COc1ccc2c(c1)OC(C)(C)C(c1ccccc1)C2c1ccc(OCCN2CCCC2)cc1` (stereo not drawn) [Ormeloxifene], the CC50 at 24 h (AC50 (uM) modified / 1000) was determined as 6.42 µM. Same read-out and setting: to `NS(=O)(=O)c1cc2c(cc1Cl)NC(Cc1ccccc1)NS2(=O)=O` (stereo not drawn) [Benzylhydrochlorothiazide] belongs over 50 µM; to `CCC[C@@]1(CCc2ccccc2)CC(O)=C([C@H](CC)c2cccc(NS(=O)(=O)c3ccc(C(F)(F)F)cn3)c2)C(=O)O1` [Tipranavir], over 50 µM. Still for that read-out and setting: then `CCOc1ccc(Cc2nccc3cc(OCC)c(OCC)cc23)cc1OCC` [Ethaverine hydrochloride], with over 20 µM; and `COc1cc(S(=O)(=O)Nc2ccccc2)c(OC)cc1N` [4-Amino-2,5-dimethoxy-N-phenylbenzenesulfonamide], with over 90 µM. Same read-out and setting: to `NC1CCCCC1` [Cyclohexylamine hydrochloride] belongs over 90 µM. Regarding `CC(=O)Nc1ccccc1C` [N-Acetyl-o-toluidine], the half-maximal cytotoxic concentration (CC50) at 24 h (AC50 (uM) modified / 1000) is over 100 µM. Same read-out and setting: to `CN(C)C` [Trimethylamine hydrochloride] belongs over 90 µM; to `CC(N)Cc1ccc(O)cc1` (stereo not drawn) [Hydroxyamphetamine hydrobromide], over 50 µM. Where the note is “AC50 (uM) modified / 1000, Tox21_110001=Tox21_200642, viability, 1 nM T3 present, 24 h”, `CC(C)N(C(=O)SC/C(Cl)=C/Cl)C(C)C` [Diallate] came in with a CC50 at 24 h of 92.9 µM. That is a double-digit micromolar value. Molecule `O=C(NC(=O)c1c(F)cccc1F)Nc1cc(Cl)c(Oc2ncc(C(F)(F)F)cc2Cl)c(Cl)c1` [Chlorfluazuron] yielded a half-maximal cytotoxic concentration (CC50) at 24 h (AC50 (uM) modified / 1000) of 71.4 µM. `O=CN(CCO)CCO` [N,N-Bis(2-hydroxyethyl)formamide] came in with a CC50 at 24 h (AC50 (uM) modified / 1000) of over 90 µM. On the same count and under the same terms, then `Brc1ccc(-c2ccccc2)cc1` [4-Bromobiphenyl], with over 90 µM; and `CC[N+](C)(CC)CC` [N,N-Diethyl-N-methylethanaminium chloride], with over 90 µM. On the same count and under the same terms, to `Oc1c(I)cc(I)c2cccnc12` [Iodoquinol] belongs over 50 µM; to `CC(C)=CC1C(C(=O)OC(C#N)c2cccc(Oc3ccccc3)c2)C1(C)C` (stereo not drawn) [Cyphenothrin], over 90 µM; to `CN1C(=O)CC(c2ccccc2)C1=O` (stereo not drawn) [Phensuximide], over 50 µM. Still for that read-out and setting: then `CC1(C)O[C@@H]2C[C@H]3[C@@H]4C[C@H](F)C5=CC(=O)C=C[C@]5(C)[C@H]4[C@@H](O)C[C@]3(C)[C@]2(C(=O)CO)O1` [Flunisolide], with over 20 µM.

The molecule `CCCCCCCC(=O)CC[C@@H]1[C@@H](C/C=C\CCCC(=O)OC(C)C)[C@@H](O)C[C@H]1O` [Unoprostone isopropyl ester] showed a half-maximal cytotoxic concentration (CC50) at 24 h (AC50 (uM) modified / 1000) of 18 µM. `O=S(=O)(c1cccc2cnccc12)N1CCCNCC1` [Fasudil hydrochloride] yielded a half-maximal cytotoxic concentration (CC50) at 24 h (AC50 (uM) modified / 1000) of over 50 µM. On to `O=C1C(Cl)C(CCl)CN1c1cccc(C(F)(F)F)c1` (stereo not drawn) [Flurochloridone], for which, for the setting “AC50 (uM) modified / 1000”, the CC50 at 24 h is over 90 µM. For the molecule `CC(=O)OCC(=O)[C@@]1(O)CC[C@H]2[C@@H]3CCC4=CC(=O)CC[C@]4(C)C3=CC[C@@]21C` [Anecortave acetate], the 50% cytotoxic concentration (CC50) at 24 h (AC50 (uM) modified / 1000) is over 50 µM. `CCOc1ccccc1C(N)=O` [2-Ethoxybenzamide] gave a CC50 at 24 h (AC50 (uM) modified / 1000) of over 90 µM.

Turning to `Clc1cc(Cl)c(Cl)c(Cl)c1Cl` [Pentachlorobenzene], the CC50 at 24 h (AC50 (uM) modified / 1000) is over 90 µM. Consider `CCO/C=C1\N=C(c2ccccc2)OC1=O` [Oxazolone], for which half-maximal cytotoxicity (AC50 (uM) modified / 1000) (CC50 at 24 h) was put at 64.5 µM.

As for `NCCCNCCSP(=O)(O)O` [Amifostine], where the note is “AC50 (uM) modified / 1000”, the CC50 at 24 h is over 50 µM.
